Series [1] has as its system newly transformed schistosomula (NTS). Briefly: Phenotypic screening on newly transformed schistosomula (NTS). The format is cell-based, Schistosoma mansoni. The conditions noted are these: for IC50: Schistosoma mansoni, 72 h, read-out: IC50, viability of NTS.
For a further series, the target named is HDAC4 (Homo sapiens, UniProt P56524). Briefly: HDAC4 protease-coupled fluorescence (AMC) inhibition assay. The format is biochemical. The conditions noted are these: hr enzyme, class IIa substrate Boc-Lys(trifluoroacetyl)-AMC; read-out: IC50 against HDAC4. From the text:
(§1) The new hydroxamates 2 and 6 were screened and profiled via a protease-coupled assay in which the quantification of HDAC enzyme activity is based on the formation of a free fluorescent group, the 7-amino-4-methyl coumarin (AMC).[42] […] After deacetylation by HDACs, the de(trifluoro)acetylated AMC–peptides were sensitive toward lysine peptidase and free fluorogenic AMC was generated and quantified.[42]
(§2) To gain insights into its inhibition profile for human HDACs, we tested 3 against hrHDACs 1–6 and 8 following the above procedure (Table 1).
(§3) Individual IC50 values for each HDAC isozyme were measured with the homogeneous fluorescence release HDAC assay.[42]

Another series in a line: in vitro. The conditions noted are these: mouse, noninfected L929 fibroblast cells.
A further series concerns the target HDAC10 (Homo sapiens, UniProt Q969S8). Briefly: HDAC10 protease-coupled fluorescence (AMC) inhibition assay. The conditions noted are these: hr enzyme; read-out: IC50 against HDAC10. It counts as biochemical. The method, then: as §1, §3
The target of the next series is HDAC9 (Homo sapiens, UniProt Q9UKV0). Briefly: HDAC9 protease-coupled fluorescence (AMC) inhibition assay. It counts as biochemical. The conditions noted are these: hr enzyme, class IIa substrate; read-out: IC50 against HDAC9. The method, then: as §1, §3
The target in another series is HDAC2 (Homo sapiens, UniProt Q92769). Description: HDAC2 protease-coupled fluorescence (AMC) inhibition assay. The format is biochemical. The conditions noted are these: hr enzyme, 10-dose, 3-fold dilution from 50 μM (3: from 300 μM); read-out: IC50 against HDAC2.
Text: as §1, §2, §3

Another series concerns the target T1, HDAC6 (Homo sapiens, UniProt Q9UBN7).
T1 sequence (Q9UBN7 1-1215): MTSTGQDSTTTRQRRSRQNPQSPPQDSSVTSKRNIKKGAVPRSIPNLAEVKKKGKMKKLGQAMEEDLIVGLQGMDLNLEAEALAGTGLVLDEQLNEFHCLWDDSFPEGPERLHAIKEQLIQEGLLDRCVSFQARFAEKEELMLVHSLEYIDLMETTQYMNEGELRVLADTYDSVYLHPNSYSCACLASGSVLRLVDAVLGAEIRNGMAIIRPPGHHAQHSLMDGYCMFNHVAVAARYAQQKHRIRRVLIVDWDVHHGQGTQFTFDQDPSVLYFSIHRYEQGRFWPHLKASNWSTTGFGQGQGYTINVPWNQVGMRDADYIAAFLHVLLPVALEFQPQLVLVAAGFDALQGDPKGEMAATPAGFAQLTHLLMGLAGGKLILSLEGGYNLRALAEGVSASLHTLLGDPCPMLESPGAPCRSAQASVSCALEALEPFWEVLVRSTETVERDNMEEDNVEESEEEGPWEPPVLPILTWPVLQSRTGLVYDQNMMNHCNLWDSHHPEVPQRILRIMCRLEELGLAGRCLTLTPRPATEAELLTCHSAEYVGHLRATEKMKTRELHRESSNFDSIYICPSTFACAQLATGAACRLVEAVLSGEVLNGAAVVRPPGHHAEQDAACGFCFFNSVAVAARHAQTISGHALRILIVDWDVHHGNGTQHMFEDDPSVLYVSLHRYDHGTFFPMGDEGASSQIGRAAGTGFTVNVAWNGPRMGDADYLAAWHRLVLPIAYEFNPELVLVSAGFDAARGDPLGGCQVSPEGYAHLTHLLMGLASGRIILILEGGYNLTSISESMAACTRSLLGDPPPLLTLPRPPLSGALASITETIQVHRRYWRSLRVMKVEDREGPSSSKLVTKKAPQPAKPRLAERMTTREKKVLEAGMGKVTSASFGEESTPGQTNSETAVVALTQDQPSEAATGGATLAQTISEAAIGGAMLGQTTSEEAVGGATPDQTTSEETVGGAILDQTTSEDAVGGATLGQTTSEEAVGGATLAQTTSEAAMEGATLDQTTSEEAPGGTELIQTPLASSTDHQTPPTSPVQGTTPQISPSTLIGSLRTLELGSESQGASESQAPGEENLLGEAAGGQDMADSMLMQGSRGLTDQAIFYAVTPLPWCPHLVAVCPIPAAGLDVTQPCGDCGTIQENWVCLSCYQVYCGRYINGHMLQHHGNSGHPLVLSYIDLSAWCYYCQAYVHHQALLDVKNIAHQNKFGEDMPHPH
Description: HDAC6 protease-coupled fluorescence (AMC) inhibition assay. The following applies: hr enzyme, 10-dose, 3-fold dilution from 50 μM (3: from 300 μM); read-out: IC50 against HDAC6. The format is biochemical.
Text: as §1, §2, §3

A further series deals with HDAC7 (Homo sapiens, UniProt Q8WUI4). Description: HDAC7 protease-coupled fluorescence (AMC) inhibition assay. The conditions noted are these: hr enzyme, class IIa substrate; read-out: IC50 against HDAC7. The format is biochemical. The method, then: as §1, §3
The target of a further series is T2, HDAC8 (Homo sapiens, UniProt Q9BY41).
T2 sequence (Q9BY41 1-377): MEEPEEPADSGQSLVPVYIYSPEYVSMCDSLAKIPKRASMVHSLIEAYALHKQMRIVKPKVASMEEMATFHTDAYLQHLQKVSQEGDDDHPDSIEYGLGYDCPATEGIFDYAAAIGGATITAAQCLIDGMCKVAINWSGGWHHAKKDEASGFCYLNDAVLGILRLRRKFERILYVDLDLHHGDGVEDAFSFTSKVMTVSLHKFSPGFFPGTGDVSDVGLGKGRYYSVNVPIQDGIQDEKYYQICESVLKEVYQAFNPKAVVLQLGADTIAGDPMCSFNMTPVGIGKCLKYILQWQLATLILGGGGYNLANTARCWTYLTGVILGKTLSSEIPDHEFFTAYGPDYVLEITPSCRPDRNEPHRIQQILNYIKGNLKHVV
Description: HDAC8 protease-coupled fluorescence (AMC) inhibition assay. The format is biochemical. The following applies: hr enzyme, substrate RHK(Ac)K(Ac)AMC; read-out: IC50 against HDAC8.
Text: as §1, §2, §3

The next series addresses HDAC1 (Homo sapiens, UniProt Q13547). Description: HDAC1 protease-coupled fluorescence (AMC) inhibition assay. The format is biochemical. The conditions noted are these: hr enzyme, 10-dose, 3-fold dilution from 50 μM (3: from 300 μM); read-out: IC50 against HDAC1.
Text: as §1, §2, §3

In series [2] the test system is L. donovani promastigotes. Briefly: Resazurin reduction assay, L. donovani promastigotes. The format is cell-based. The conditions noted are these: Leishmania donovani, read-out: percentage of inhibition, L. donovani promastigotes.
Another series has as its target HDAC3 (Homo sapiens, UniProt O15379). Briefly: HDAC3 protease-coupled fluorescence (AMC) inhibition assay. The format is biochemical. The following applies: hr enzyme, 10-dose, 3-fold dilution from 50 μM (3: from 300 μM); read-out: IC50 against HDAC3.
Text: as §1, §2, §3

“And” between values parts separate entries of the source, which are not always exact repeats. Equal values may be shown once. Some results are limits rather than exact numbers.

HDAC4, sequence (P56524 whole entry): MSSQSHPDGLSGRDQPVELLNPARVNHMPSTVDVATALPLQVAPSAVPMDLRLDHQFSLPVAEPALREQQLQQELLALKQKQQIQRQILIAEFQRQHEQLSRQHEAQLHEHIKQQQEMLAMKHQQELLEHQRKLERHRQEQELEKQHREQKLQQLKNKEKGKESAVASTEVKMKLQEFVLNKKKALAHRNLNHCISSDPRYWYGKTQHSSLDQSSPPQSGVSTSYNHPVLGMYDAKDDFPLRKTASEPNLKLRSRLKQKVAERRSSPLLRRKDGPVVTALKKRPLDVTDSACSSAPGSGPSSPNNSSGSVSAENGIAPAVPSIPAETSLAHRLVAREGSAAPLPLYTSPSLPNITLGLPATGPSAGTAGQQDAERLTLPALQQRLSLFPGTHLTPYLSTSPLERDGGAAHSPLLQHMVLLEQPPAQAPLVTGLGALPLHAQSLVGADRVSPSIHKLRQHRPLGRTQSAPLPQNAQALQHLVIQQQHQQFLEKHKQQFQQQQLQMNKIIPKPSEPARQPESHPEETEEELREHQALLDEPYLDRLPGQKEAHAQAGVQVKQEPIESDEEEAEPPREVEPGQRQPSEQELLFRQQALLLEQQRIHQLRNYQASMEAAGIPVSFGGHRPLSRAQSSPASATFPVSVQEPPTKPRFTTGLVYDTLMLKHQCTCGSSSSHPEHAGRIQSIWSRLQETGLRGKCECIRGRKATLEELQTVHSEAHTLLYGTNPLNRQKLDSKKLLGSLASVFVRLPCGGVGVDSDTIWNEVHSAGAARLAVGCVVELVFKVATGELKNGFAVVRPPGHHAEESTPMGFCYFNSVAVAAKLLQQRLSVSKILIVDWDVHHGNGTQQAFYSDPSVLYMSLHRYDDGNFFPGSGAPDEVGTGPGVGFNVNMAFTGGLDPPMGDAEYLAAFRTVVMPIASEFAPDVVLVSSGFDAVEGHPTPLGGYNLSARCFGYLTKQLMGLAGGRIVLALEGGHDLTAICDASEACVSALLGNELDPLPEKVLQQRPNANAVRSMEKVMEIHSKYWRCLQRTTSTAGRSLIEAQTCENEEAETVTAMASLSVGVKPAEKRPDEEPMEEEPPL
HDAC1, sequence (Q13547 whole entry): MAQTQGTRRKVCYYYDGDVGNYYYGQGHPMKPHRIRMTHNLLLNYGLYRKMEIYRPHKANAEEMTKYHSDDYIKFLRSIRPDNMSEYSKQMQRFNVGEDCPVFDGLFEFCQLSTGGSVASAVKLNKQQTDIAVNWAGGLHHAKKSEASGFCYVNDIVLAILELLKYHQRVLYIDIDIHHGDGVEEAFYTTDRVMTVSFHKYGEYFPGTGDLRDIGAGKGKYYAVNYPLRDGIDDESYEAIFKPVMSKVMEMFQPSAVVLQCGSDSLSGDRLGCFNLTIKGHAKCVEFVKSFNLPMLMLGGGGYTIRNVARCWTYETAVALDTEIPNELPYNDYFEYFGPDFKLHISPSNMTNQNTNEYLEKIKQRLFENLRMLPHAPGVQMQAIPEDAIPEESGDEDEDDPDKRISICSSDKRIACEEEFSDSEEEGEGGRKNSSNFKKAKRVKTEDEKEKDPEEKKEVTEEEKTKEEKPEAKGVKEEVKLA
HDAC2, sequence (Q92769 whole entry): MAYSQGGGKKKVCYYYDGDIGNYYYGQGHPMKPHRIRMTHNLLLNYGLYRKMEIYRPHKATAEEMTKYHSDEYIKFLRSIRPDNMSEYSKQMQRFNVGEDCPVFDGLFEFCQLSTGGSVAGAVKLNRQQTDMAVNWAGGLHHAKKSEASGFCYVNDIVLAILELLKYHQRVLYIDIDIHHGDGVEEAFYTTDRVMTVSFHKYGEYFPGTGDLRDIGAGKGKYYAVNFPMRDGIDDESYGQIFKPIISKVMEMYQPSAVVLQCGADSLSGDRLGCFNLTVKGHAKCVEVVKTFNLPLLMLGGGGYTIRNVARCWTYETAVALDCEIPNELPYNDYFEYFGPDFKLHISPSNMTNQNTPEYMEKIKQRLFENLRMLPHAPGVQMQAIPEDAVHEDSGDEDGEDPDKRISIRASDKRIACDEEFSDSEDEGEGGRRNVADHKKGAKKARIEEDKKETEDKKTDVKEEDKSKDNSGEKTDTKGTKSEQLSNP
HDAC10, sequence (Q969S8 whole entry): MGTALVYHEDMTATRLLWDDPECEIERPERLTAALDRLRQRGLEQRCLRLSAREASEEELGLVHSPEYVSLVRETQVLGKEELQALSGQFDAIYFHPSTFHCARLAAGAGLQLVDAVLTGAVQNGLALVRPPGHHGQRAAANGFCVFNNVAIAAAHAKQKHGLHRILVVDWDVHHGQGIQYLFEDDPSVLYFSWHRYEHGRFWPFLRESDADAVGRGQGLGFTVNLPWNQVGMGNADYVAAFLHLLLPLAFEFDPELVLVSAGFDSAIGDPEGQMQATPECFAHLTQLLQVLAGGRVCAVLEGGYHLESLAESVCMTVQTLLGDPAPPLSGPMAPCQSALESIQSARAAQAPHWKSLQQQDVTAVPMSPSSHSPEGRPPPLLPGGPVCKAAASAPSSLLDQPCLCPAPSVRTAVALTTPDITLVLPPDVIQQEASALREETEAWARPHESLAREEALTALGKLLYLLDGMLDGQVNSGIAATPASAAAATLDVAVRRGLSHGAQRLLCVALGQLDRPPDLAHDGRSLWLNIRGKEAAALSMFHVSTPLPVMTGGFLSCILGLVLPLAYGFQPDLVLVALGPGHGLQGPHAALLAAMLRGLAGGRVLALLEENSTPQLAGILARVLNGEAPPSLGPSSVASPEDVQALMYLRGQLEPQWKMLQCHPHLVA
HDAC9, sequence (Q9UKV0 whole entry): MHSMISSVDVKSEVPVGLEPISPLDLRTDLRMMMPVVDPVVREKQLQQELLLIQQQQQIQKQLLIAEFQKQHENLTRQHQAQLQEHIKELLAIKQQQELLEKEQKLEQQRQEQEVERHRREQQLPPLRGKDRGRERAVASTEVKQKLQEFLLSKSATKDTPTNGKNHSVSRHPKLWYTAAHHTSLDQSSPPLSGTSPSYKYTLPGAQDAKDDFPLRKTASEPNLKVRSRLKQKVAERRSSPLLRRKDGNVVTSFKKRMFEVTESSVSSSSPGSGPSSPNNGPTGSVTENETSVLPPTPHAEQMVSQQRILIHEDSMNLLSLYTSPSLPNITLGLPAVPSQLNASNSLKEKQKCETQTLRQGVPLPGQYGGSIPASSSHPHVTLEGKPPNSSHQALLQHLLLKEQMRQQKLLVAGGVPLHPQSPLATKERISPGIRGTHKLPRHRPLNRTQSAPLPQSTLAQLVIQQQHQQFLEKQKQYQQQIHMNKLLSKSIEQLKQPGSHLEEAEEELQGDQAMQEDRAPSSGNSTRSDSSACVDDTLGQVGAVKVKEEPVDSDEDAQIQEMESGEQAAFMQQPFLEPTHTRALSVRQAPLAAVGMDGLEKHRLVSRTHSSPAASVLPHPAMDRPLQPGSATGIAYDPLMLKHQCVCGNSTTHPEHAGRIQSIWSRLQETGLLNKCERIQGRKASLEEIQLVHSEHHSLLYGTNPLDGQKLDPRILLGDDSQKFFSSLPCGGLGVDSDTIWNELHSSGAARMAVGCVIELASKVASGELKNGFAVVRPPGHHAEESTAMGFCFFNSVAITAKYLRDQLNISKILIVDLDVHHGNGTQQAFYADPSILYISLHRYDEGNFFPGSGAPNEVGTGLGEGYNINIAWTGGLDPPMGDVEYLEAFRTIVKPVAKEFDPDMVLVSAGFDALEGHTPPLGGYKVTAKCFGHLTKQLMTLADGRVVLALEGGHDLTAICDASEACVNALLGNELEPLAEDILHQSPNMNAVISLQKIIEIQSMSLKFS
HDAC3, sequence (O15379 whole entry): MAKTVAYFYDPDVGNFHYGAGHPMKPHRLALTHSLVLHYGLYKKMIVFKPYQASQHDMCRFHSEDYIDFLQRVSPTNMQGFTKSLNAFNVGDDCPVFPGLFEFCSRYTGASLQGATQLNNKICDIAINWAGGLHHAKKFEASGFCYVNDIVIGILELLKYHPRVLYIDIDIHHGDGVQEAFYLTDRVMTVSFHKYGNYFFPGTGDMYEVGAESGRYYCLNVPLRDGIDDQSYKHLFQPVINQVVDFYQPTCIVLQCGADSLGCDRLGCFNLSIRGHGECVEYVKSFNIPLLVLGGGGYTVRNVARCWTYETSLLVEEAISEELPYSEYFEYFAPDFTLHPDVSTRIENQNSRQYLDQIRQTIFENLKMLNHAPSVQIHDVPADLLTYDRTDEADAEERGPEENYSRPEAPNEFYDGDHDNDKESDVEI
HDAC3, sequence (Q9Y618 395-489 partner limits assumed): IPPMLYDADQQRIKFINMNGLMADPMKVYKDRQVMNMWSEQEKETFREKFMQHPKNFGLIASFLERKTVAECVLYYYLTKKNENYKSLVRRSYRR

The term IC50 denotes the concentration that gives 50% inhibition. The term CC50 denotes the concentration at which the toxic effect on the cells reaches its halfway point. A word on the inhibition: it is the change of the read-out against control, counted positive when it falls. Take `O=C(/C=C/c1ccc(CSc2nc(Cl)cc(-c3ccccc3)n2)cc1)NO` [Compound 2, 3-(4-(((4-Chloro-6-phenylpyrimidin-2-yl)thio)methyl)phenyl)-N-hydroxy Acrylamide]: the “percentage of NTS activity, 72 h” value in [1] (10 μM) is 39.7 ± 0.9%; in series [1] (20 μM), 70% and 67.31 ± 2.9%. In addition, the IC50 in series [1] is 12.9 µM; at HDAC4, 17.3 µM; at HDAC10, 2.8 µM; on HDAC9, more than 50 µM; on HDAC2, 4.11 µM; on HDAC6, 0.12 µM. The IC50 on HDAC7 was more than 50 µM; on HDAC8, 2.22 µM; at HDAC1 it was 1.68 µM; on HDAC3, 0.53 µM. Further, half-maximal cytotoxicity in the series “in vitro” (CC50 at 96 h) was put at 20 µM. The inhibition at 0.8 µM in [2] was determined as 1.1 ± 2%. For the same compound, the inhibition at 4 µM in series [2] amounted to 2.5 ± 1.4%. The inhibition at 20 µM in series [2] worked out at 74.8 ± 2.5%.
Take `CN(C)Cc1ccc(S(=O)(=O)n2ccc3cc(/C=C/C(=O)NO)ccc32)cc1` [Compound 6, 3-(1-((4-((Dimethylamino)methyl)phenyl)sulfonyl)-1H-indol-5-yl)-N-hydroxy Acrylamide]: the figures for the “percentage of NTS activity, 72 h” value in series [1] (10 μM) and in series [1] (20 μM) were 20.9 ± 0.9% and 22.8 ± 1.0%, respectively. Also, the 50% inhibitory concentration (IC50) in series [1] is more than 20 µM; at HDAC4, 16.7 µM; at HDAC10 it was 2.87 µM; on HDAC9 it was 31.1 µM; at HDAC2 it was 3.49 µM; at HDAC6, 0.018 µM. For the same compound, the IC50 at HDAC7 was more than 50 µM; on HDAC8, 1.87 µM; at HDAC1, 2.07 µM; at HDAC3, 0.38 µM. The compound also yielded a cytotoxic concentration (CC50) at 96 h in “in vitro” of 5 µM. Besides, the inhibition at 0.8 µM in series [2] was 7.9 ± 7.5%. For the same compound, the inhibition at 4 µM in series [2] worked out at 6.9 ± 8.7%. In addition, in series [2], the inhibition at 20 µM came out at 8.6 ± 1.3%.
